# Read-outs that look alike come from different tables or passages of the source.
# Experiments:
# human PBMC B cells = assay: cells; format: cell-based; settings: read-out: B-cells (IC50)
# human PBMC T cells = assay: cells; format: cell-based; settings: 72 h, read-out: T-cells (IC50)
# IMPDH human type II = IMPDH human type II (Homo sapiens, UniProt P12268); assay: biochemical
Compound,"IC50 (human PBMC B cells; Homo sapiens, 72 h) [nM]",IC50 (human PBMC T cells) [nM],Ki (IMPDH human type II) [nM],other results
CCN(C)CCC(OC(=O)NCc1cccc(NC(=O)Nc2ccc(-c3cnco3)c(OC)c2)c1)c1ccccc1 (stereo not shown) [Compound 139],100 to 1000,100 to 1000,,
C=CC(COC(C)=O)OC(=O)NCc1cccc(NC(=O)Nc2ccc(-c3cnco3)c(OC)c2)c1 (stereo not shown) [Compound 133],,,10 to 50,
CC[C@H](COC(=O)CN)OC(=O)NCc1cccc(NC(=O)Nc2ccc(-c3cnco3)c(OC)c2)c1 [Compound 95],,,,"Ki (IMPDH human type II; IMPDH human type II, 200 μM IMP, 200 μM NAD, 37° C.): < 10 nM"
CC[C@@H](CC#N)OC(=O)NCc1cccc(NC(=O)Nc2ccc(-c3cnco3)c(OC)c2)c1 [Compound 88],,,< 10,
CC[C@H](CCC#N)OC(=O)NCc1cccc(NC(=O)Nc2ccc(-c3cnco3)c(OC)c2)c1 [Compound 89],< 100,< 100,,
COc1cc(NC(=O)Nc2cccc(CNC(=O)OC3CCC[C@H]3N3CCOCC3)c2)ccc1-c1cnco1 (stereo partly shown) [Compound 80],< 100,,,
CCC(CCC#N)OC(=O)NCc1cccc(NC(=O)Nc2ccc(-c3cnco3)c(OC)c2)c1 (stereo not shown) [Compound 45],,,< 10,
COc1cc(NC(=O)Nc2cccc(CNC(=O)O[C@H](CN3CCCC3)c3ccccc3)c2)ccc1-c1cnco1 [Compound 98],< 100,< 100,,
COc1cc(NC(=O)Nc2cccc(CNC(=O)OC[C@H](CC#N)NC(=O)OC(C)(C)C)c2)ccc1-c1cnco1 [Compound 10],,100 to 1000,,
COc1cc(NC(=O)Nc2cccc([C@H](C)NC(=O)O[C@H]3CCOC3)c2)ccc1C#N [Compound 185],,,,IC50 (human PBMC B cells): < 100 nM

# From patent US8268873B2 (priority 1999, dated 2012)
